In patent US11530206B2, “Phenylaminopyrimidine amide autophagy inhibitors and methods of use thereof” (Deciphera Pharmaceuticals, LLC, priority 2019, dated 2022):
pIC50: −log10 of the molar value.

Assays:
[1] = target: T1, LRRK2 kinase (Homo sapiens, UniProt Q5S007); assay: Biochemical assay for LRRK2 (coupled pyruvate kinase/lactate dehydrogenase assay); details: 26.4 nM LRRK2 (residues 970-2528), peptide substrate, 1 mM ATP
T1 construct: purchased Thermo Fisher
In short: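 Recombinant LRRK2 (26.4 nM) with 0.1 mM peptide substrate and 1 mM ATP in Tris pH 7.5/MgCl2 buffer; ADP production coupled via PK/LDH to NADH oxidation, A340 read continuously 6 h at 30 °C. Rates from 2–3 h window converted to % inhibition versus no-compound and reference-inhibitor controls; IC50 fitted.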

[2] = tested on: ULK kinase; assay: pATG13 levels of mutant KRas MiaPaCa-2 cells after treatment with ULK inhibitors in combination with trametinib (ELISA); type: cell-based, human; details: MiaPaCa-2 pancreatic cancer cells, 250 nM trametinib, overnight, pS318-ATG13
In short: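 MiaPaCa-2 cells in DMEM with 10% FBS and 2.5% horse serum were pretreated with trametinib or DMSO, then given a test-compound dose response overnight at 37° C. Lysates were assayed for phospho-ATG13 by ELISA (A450 minus A540 background, blank-corrected). % phosphorylation was calculated relative to controls and fitted to IC50.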

[3] = tested on: ULK kinase; assay: pATG13 levels of mutant KRas HCT-116 cells after treatment with ULK inhibitors in combination with trametinib (ELISA); type: cell-based, human; details: HCT-116 colon cancer cells, 250 nM trametinib, overnight, pS318-ATG13
Protocol: The following day, 10 μL of media containing trametinib or DMSO as a control was added to wells. […] A dose response of a test compound (0.6 μL per well) was added. DMSO (0.6 μL) was added to control wells. The plate was briefly shaken to mix wells and then incubated at 37° C. overnight. The next day, the media was aspirated and cells were washed with Dulbecco's Phosphate Buffered Saline (Gibco). Cells were lysed using MPER lysis buffer (Pierce, Rockford, Ill.) containing Halt Phosphatase and Protease Inhibitors (Pierce, Rockford, Ill.) and Phosphatase inhibitor cocktail 2 (Sigma, St. Louis, Mo.) at 4° C. for 10 minutes with shaking.
(§1) Plate wells were washed with ELISA wash buffer. Cell lysate was added to wells and incubated at room temperature for 2 hours. Plate wells were washed with ELISA wash buffer. […] Plate wells were washed with ELISA wash buffer. […] Plate wells were washed with ELISA wash buffer. […] The reaction was stopped with 2N Sulfuric Acid. The plate was analyzed at on a plate reader measuring absorbance at 450 nm and 540 nm (background). Signal was calculated by first subtracting the background absorbance at 540 nm from the absorbance at 450 nm for each well. Next, the background corrected absorbance at 450 nm from blank wells was subtracted from test wells. Data was compared to control wells to determine % ATG13 phosphorylation. GraphPad Prism was used to calculate IC50 values.

[4] = tested on: ULK kinase; assay: pATG13 levels of mutant KRas A549 cells after treatment with ULK inhibitors in combination with trametinib (ELISA); type: cell-based, human; details: A549 (KRAS mutant) lung cancer cells, 250 nM trametinib, overnight, pS318-ATG13
In short: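 Lysates with phosphatase/protease inhibitors assayed by pATG13 ELISA, A450 minus A540 background and blank-corrected. % ATG13 phosphorylation versus DMSO controls fitted to IC50.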

[5] = target: T2, ULK1 kinase (Homo sapiens, UniProt O75385, E37A/K38A); assay: Biochemical assay for ULK1.3 (coupled pyruvate kinase/lactate dehydrogenase assay, peptide substrate); details: 0.1 nM ULK1 (residues 1-283), 1 mM ATP
T2 construct: purchased Beryllium
T2 sequence (O75385 1-283 E37A/K38A): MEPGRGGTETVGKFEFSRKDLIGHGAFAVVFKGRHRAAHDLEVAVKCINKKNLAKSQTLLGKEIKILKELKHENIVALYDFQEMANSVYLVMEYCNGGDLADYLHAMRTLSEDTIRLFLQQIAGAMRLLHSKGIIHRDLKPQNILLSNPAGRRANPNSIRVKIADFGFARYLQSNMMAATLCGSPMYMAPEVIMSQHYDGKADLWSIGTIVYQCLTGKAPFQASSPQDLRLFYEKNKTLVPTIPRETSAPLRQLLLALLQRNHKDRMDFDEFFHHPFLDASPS
In short: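 ULK1.3 activity was followed by continuous decrease in 340 nm absorbance over 6 h at 30 °C with 1% DMSO final. Rates were taken from the 2–3 h window and converted to percent inhibition against no-compound and known-inhibitor controls. IC50 values came from curve fitting.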

[6] = target: T3, ULK2 kinase (Homo sapiens, UniProt Q8IYT8); assay: Biochemical assay for ULK2 (coupled pyruvate kinase/lactate dehydrogenase assay); details: 9.7 nM ULK2 (residues 1-306, GST and His tag), myelin basic protein, 1 mM ATP; read-out: ULK2.2
T3 construct: purchased Eurofins 14-772
Protocol: Example 132. Biochemical Assay for ULK2 (SEQ. ID NO: 3)
Activity of ULK2 kinase was determined spectroscopically using a coupled pyruvate kinase/lactate dehydrogenase assay that continuously monitors the ATP hydrolysis-dependent oxidation of NADH (e.g., Schindler et al. Science (2000) 289: 1938-1942). Assays were conducted in 384-well plates (100 uL final volume) using 9.7 nM ULK2 (Eurofins CAT #14-772), 0.25 mg/mL myelin basic protein, 1.5 units pyruvate kinase, 2.1 units lactate dehydrogenase, 1 mM phosphoenol pyruvate, 0.28 mM NADH and 1 mM ATP in assay buffer (100 mM Tris, pH 7.5, 15 mM MgCl2, 0.5 mM DTT, 0.1% octyl-glucoside, 0.002% (w/v) BSA, and 0.002% Triton X-100). Inhibition of ULK2 was measured by adding serial diluted test compound (final assay concentration of 1% DMSO). A decrease in absorption at 340 nm was monitored continuously for 6 hours at 30° C. on a multi-mode microplate reader (BioTek). The reaction rate was calculated using the 2-3 h time frame. The reaction rate at each concentration of compound was converted to percent inhibition using controls (i.e. reaction with no test compound and reaction with a known inhibitor) and IC50 values were calculated by fitting a four-parameter sigmoidal curve to the data using Prism (GraphPad software).

[7] = target: T4, ULK1 kinase (Homo sapiens, UniProt O75385); assay: Biochemical assay for ULK1.2 (coupled pyruvate kinase/lactate dehydrogenase assay); details: 19 nM ULK1 (residues 1-314, His tag), myelin basic protein, 1 mM ATP
T4 construct: purchased Eurofins 14-959
T4 sequence (O75385 with tags, fused parts or gaps): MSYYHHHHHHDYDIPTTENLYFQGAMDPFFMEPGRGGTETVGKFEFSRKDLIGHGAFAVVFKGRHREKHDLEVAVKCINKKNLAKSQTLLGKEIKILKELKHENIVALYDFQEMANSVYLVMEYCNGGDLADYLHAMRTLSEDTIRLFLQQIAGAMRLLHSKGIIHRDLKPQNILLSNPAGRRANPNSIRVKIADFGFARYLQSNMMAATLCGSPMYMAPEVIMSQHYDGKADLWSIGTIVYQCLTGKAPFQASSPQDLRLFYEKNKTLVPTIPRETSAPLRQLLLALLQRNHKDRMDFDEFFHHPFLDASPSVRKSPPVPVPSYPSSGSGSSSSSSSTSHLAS
Protocol: Biochemical Assay for ULK1.2 (SEQ. ID NO: 1)
Inhibition of ULK1 was measured by adding serial diluted test compound (final assay concentration of 1% DMSO). A decrease in absorption at 340 nm was monitored continuously for 6 hours at 30° C. on a multi-mode microplate reader (BioTek). The reaction rate was calculated using the 2-3 h time frame. The reaction rate at each concentration of compound was converted to percent inhibition using controls (i.e. reaction with no test compound and reaction with a known inhibitor) and IC50 values were calculated by fitting a four-parameter sigmoidal curve to the data using Prism (GraphPad software).

[8] = tested on: ULK kinase; assay: pATG13 levels of mutant BRAF A375 cells after treatment with ULK inhibitors in combination with trametinib (ELISA); type: cell-based, human; details: A375 malignant melanoma cells (mutant BRAF), 250 nM trametinib, overnight, pS318-ATG13
Protocol: A375 human malignant melanoma cancer cells (20000 cells/well) were added to a 96-well tissue-culture treated plate in 100 μL of pre-warmed DMEM medium supplemented with 10% characterized fetal bovine serum (Invitrogen, Carlsbad, Calif.), 100 units/mL penicillin G, and 100 μg/mL streptomycin and allowed to grow overnight at 37° C., 5% CO2, and 95% humidity. The following day, 100 μL of media containing trametinib or DMSO as a control was added to wells. […] A dose response of a test compound (0.5 μL per well) was added. DMSO (0.5 μL) was added to control wells. The plate was briefly shaken to mix wells and then incubated at 37° C. overnight. The next day, the media was aspirated and cells were washed with Dulbecco's Phosphate Buffered Saline (Gibco). Cells were lysed using MPER lysis buffer (Pierce, Rockford, Ill.) containing Halt Phosphatase and Protease Inhibitors (Pierce, Rockford, Ill.) and Phosphatase inhibitor cocktail 2 (Sigma, St. Louis, Mo.) at 4° C. for 10 minutes with shaking.
as §1

T3 sequence (Q8IYT8 with tags, fused parts or gaps): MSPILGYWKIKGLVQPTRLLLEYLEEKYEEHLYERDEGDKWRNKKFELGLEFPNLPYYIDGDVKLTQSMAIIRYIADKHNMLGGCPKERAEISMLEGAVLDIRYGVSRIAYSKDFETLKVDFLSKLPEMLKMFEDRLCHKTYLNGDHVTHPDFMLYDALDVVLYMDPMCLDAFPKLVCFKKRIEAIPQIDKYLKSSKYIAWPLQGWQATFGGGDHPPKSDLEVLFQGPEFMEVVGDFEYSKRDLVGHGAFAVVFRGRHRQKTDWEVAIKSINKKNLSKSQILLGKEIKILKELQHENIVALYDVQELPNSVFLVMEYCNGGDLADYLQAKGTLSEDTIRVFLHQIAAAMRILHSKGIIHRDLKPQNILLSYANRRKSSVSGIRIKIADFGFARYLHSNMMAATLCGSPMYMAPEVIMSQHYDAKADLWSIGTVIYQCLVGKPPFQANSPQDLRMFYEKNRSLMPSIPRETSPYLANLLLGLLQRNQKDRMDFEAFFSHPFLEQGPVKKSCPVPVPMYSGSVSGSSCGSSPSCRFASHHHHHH
T1 sequence (Q5S007 with tags, fused parts or gaps): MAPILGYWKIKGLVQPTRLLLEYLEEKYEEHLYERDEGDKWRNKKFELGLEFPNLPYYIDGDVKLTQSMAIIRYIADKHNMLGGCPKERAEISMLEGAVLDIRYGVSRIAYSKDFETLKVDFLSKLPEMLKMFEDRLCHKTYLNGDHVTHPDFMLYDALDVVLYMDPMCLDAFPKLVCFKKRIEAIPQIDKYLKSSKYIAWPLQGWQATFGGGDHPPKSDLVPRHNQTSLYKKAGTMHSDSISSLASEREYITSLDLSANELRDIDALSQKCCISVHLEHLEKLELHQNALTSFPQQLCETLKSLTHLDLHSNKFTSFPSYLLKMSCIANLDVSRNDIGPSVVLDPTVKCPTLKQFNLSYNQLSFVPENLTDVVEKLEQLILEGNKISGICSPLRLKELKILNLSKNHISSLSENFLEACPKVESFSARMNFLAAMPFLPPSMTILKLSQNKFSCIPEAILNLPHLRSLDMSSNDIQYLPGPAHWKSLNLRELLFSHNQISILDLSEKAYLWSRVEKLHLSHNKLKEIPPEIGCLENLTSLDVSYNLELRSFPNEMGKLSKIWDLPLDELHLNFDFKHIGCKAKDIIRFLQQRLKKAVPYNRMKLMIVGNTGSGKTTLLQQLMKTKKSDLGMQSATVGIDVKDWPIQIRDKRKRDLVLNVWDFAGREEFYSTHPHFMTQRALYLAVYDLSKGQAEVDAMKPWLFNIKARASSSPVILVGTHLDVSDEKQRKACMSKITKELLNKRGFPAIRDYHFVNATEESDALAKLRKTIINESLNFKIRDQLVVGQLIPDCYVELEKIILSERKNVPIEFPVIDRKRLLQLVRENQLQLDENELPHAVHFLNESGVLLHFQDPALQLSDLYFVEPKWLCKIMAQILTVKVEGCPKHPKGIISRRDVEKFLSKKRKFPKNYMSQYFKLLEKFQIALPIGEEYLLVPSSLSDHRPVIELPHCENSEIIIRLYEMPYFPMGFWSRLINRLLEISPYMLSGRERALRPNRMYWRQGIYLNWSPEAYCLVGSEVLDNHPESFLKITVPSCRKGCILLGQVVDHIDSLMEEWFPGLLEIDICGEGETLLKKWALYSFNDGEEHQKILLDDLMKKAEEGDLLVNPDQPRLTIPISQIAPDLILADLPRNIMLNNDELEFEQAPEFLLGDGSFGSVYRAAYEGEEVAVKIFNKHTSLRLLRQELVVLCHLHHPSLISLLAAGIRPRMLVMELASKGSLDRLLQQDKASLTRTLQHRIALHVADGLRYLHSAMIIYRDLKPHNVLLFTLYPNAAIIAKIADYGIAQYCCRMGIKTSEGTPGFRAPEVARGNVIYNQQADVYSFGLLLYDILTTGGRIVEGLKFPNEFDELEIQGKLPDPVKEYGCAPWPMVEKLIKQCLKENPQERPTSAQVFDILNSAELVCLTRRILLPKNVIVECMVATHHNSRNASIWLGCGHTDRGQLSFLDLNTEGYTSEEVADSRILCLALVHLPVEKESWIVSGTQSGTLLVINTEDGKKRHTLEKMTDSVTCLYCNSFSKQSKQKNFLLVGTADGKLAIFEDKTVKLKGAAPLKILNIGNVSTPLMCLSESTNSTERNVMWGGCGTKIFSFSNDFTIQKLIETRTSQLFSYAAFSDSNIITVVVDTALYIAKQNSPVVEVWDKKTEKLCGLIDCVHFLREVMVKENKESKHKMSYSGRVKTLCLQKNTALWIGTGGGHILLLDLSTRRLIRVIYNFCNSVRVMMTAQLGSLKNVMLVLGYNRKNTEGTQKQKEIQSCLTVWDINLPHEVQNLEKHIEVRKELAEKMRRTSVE

| Structure (SMILES) | pIC50 [1] | pIC50 [2] | pIC50 [3] | pIC50 [4] | pIC50 [5] | pIC50 [6] | pIC50 [7] | pIC50 [8] |
| --- | --- | --- | --- | --- | --- | --- | --- | --- |
| CCc1cc(N2CCN3CCC[C@@H]3C2)ccc1Nc1ncc(C(F)(F)F)c(NCCCN2CCCOC2=O)n1 [Example 106] | 6.52 to 7.00 | 7.00 to 8.00 | 7.00 to 8.00 | 7.00 to 8.00 | 7.60 to 9.00 |  |  |  |
| Cc1cc(N2CCN(C)CC2)ccc1Nc1ncc(C(F)(F)F)c(NCCCN2CCCCC2=O)n1 [Example 20] |  | 6.52 to 7.00 | 6.52 to 7.00 | 6.22 to 6.52 |  | 7.00 to 7.60 | 7.60 to 9.00 |  |
| CCc1cc(N2CCN(C)CC2)ccc1Nc1ncc(C(F)(F)F)c(NCCCN2CCCOCC2=O)n1 [Example 54] |  | 7.00 to 8.00 | 7.00 to 8.00 | 7.00 to 8.00 |  | 7.00 to 7.60 | 7.60 to 9.00 |  |
| Cc1cc(N2CCNCC2)ccc1Nc1ncc(C(F)(F)F)c(NCCCN2CCCOC2=O)n1 [Example 37] | 6.52 to 7.00 | 7.00 to 8.00 |  | 6.52 to 7.00 | 7.60 to 9.00 |  |  | 6.22 to 6.52 |
| CCc1cc(N2CC3CCC(C2)N3C)ccc1Nc1ncc(C(F)(F)F)c(NCCCN2CCCOC2=O)n1 [Example 69] | 6.22 to 6.52 | 7.00 to 8.00 | 7.00 to 8.00 | 7.00 to 8.00 | 7.60 to 9.00 |  |  |  |
| Cc1cc(N2CCNCC2)ccc1Nc1ncc(C(F)(F)F)c(NCCCN2CCOCCC2=O)n1 [Example 75] |  | 7.00 to 8.00 | 6.52 to 7.00 | 6.52 to 7.00 | 7.60 to 9.00 |  |  | 6.52 to 7.00 |
| CCc1cc(N2CCN(C)CC2)ccc1Nc1ncc(Br)c(NCCCN2CCCCC2=O)n1 [Example 23, 1-(3-((5-bromo-2-((2-ethyl-4-(4-methylpiperazin-1-yl)phenyl)amino)pyrimidin-4-yl)amino)propyl)piperidin-2-one] |  | 7.00 to 8.00 | 7.00 to 8.00 | 7.00 to 8.00 |  | 6.30 to 7.00 | 7.00 to 7.60 | 7.00 to 8.00 |
| CN1CCN(c2ccc(Nc3ncc(C(F)(F)F)c(NCCCN4CCOCC4=O)n3)c(C3CC3)c2)CC1 [Example 47] | 6.52 to 7.00 | 6.22 to 6.52 | 6.52 to 7.00 | 6.52 to 7.00 | 7.00 to 7.60 |  |  | 6.22 to 6.52 |
| CCc1cc(N2CCN(C)CC2)ccc1Nc1ncc(Cl)c(NCCCN2CCCOCC2=O)n1 [Example 58] | 6.52 to 7.00 | 7.00 to 8.00 | 7.00 to 8.00 | 6.52 to 7.00 |  | < 6.30 | 6.30 to 7.00 |  |
| CCN1CCN(c2ccc(Nc3ncc(C(F)(F)F)c(NCCCN4CCCOCC4=O)n3)c(C(C)C)c2)CC1 [Example 60] |  | 6.52 to 7.00 | 7.00 to 8.00 | 6.52 to 7.00 |  |  | 7.60 to 9.00 | 6.22 to 6.52 |
| CCN1CCN(c2ccc(Nc3ncc(C(F)(F)F)c(NCCCN4CCOCCC4=O)n3)c(C(C)C)c2)CC1 [Example 73] |  | 6.52 to 7.00 | 7.00 to 8.00 | 6.52 to 7.00 |  | 6.30 to 7.00 | 7.60 to 9.00 | 7.00 to 8.00 |
| O=C1CCOCCN1CCCNc1nc(Nc2ccc(N3CCNCC3)cc2C2CC2)ncc1C(F)(F)F [Example 85] |  | 7.00 to 8.00 | 6.52 to 7.00 | 7.00 to 8.00 | 7.60 to 9.00 |  |  | 6.52 to 7.00 |
| CCc1cc(N2CCN(C)CC2)ccc1Nc1ncc(C(F)(F)F)c(NCCCN2CCCCC2=O)n1 [Example 11] |  | 7.00 to 8.00 | 7.00 to 8.00 | 6.52 to 7.00 |  | 7.60 to 9.00 | 7.60 to 9.00 | 7.00 to 8.00 |
| CCc1cc(N2CCN3CCC[C@@H]3C2)ccc1Nc1ncc(C(F)(F)F)c(NCCCN2CCOCCC2=O)n1 [Example 105] | 7.00 to 9.00 | 7.00 to 8.00 | 7.00 to 8.00 | 7.00 to 8.00 | 7.60 to 9.00 |  |  |  |
